Among the data in publication PMC6412374, “Engineering of Antimicrobial Surfaces by Using Temporin Analogs to Tune the Biocidal/antiadhesive Effect” (Molecules, 2019) are MIC and MBC values, retold here.

As usually defined, the MIC is the lowest concentration that inhibits growth of the organism. Usually MBC stands for the smallest concentration meeting the test's criterion for killing. Low values mean more potent killing, high ones less potent killing.

In brackets after ≈: the same amount, converted by molar mass. Square brackets hold non-standard residues; d marks the D form. Ends that are not written are not given here. Peptide text beside a SMILES is read from it. Where only a bound is given, the exact number is not on record here.

In test [1] the test system is Listeria ivanovii (Li4pVS2). The test can be described thus: MIC, liquid growth inhibition assay of free temporins in solution. It counts as cell-based. Conditions: free peptide in solution; BHI broth, 2 × 10^6 CFU/mL, 2-fold serial dilutions, overnight incubation, OD read-out; lowest concentration that completely inhibits growth; triplicate. As for the experimental part:
(§1) Non-pathogenic bacteria Listeria ivanovii Li4pVS2 (Courtesy of Prof. J.-M. Berjeaud, Poitiers University, Poitiers, France) were used to investigate the antibacterial activity of the modified surfaces. Bacterial suspensions were prepared from frozen cultures incubated overnight (37 °C under agitation at 250 rpm) in brain heart infusion (BHI) broth (BD Difco, Franklin Lakes, NJ, USA). After centrifugation at 10,000× g for 5 min and elimination of the liquid phase (supernatant) the bacteria were redisposed in NaCl 0.9% solution up to a concentration of to 2 × 10^6 colony forming unity (CFU) per mL, verified by measuring the OD620nm = 0.02.
(§2) MIC values of temporin analogs were determined using a liquid growth inhibition assay. An exponential-phase bacterial culture of Listeria ivanovii was diluted in BHI broth to an OD of 0.02 (2 × 10^6 CFU/mL). A volume of 100 μL of this bacterial suspension was mixed with 100 μL of 2-fold serial aqueous dilutions of each temporin (final concentrations from 0.78 to 100 µM). The bacterial growth was monitored by measuring the OD change during overnight incubation. MIC and MBC tests were carried out in triplicate with positive (0.7% formaldehyde) and negative (saline NaCl 0.9% solution) controls. […] The bacterial suspension corresponding to the MIC well and 4 wells above MIC were collected and deposited on agar plate in order to determine the minimal bactericidal concentration (MBC). The MBC is expressed as the lowest concentration for which a decrease of at least 99.99% is observed on agar plates after overnight incubation.

Test [2] concerns Listeria ivanovii (Li4pVS2). The test can be described thus: MBC, plating of MIC wells on agar. It counts as cell-based. To be noted: free peptide in solution; MIC well and 4 wells above plated on agar, overnight; lowest concentration with at least 99.99% decrease; triplicate. As for the experimental part:
as §1, §2

As for “FLKGIVGMLGKLF [[K^3]SHa-COOH, [K^3]temporin-SHa-COOH]”, the MIC in test [1] is given as 64 µM. For the same compound, the minimal bactericidal concentration (MBC) in test [2] is 128 µM.
Turning to “FLKGIVGMLGKLF-NH2 [[K^3]SHa, [K^3]temporin-SHa]”, the MIC in test [1] is 1.56 µM. Besides, in test [2], the MBC is listed as 3.12 µM.
On to `CC[C@@H](C)[C@@H](NC(=O)CNC(=O)[C@@H](CCCCN)NC(=O)[C@@H](CC(C)C)NC(=O)[C@H](N)Cc1ccccc1)C(=O)N[C@@H](C(=O)NCC(=O)N[C@H](CCSC)C(=O)N[C@H](CC(C)C)C(=O)NCC(=O)N[C@H](CCCCN)C(=O)N[C@H](CC(C)C)C(=O)N[C@H](Cc1ccccc1)C(N)=O)C(C)C` [D-[K^3]SHa, D-[K^3]temporin-SHa] (H-[dF][dL][dK]G[dI][dV]G[dM][dL]G[dK][dL][dF]-NH2; N-terminus assumed), for which the MIC in test [1] is given as 1.56 µM (≈ 2.22 µg/mL). In test [2], this compound came in with an MBC of 3.12 µM (≈ 4.44 µg/mL).
As to “FLSGIVGMLGKLF-NH2 [SHa, Temporin-SHa, reference compound]”, in test [1], the MIC is 6 µM. The same compound gave an MBC in test [2] of 6 µM.
In test [2], “FAKGIAGMAGKLF [[A^2,6,9, K^3]SHa-COOH, [A^2,6,9, K^3]temporin-SHa-COOH]” showed an MBC of 256 µM.
With “FASGIAGMAGKLF-NH2 [[A^2,6,9]SHa, [A^2,6,9]temporin-SHa]”, in test [2], the MBC is reported as above 200 µM.
“FAKGIAGMAGKLF-NH2 [[A^2,6,9, K^3]SHa, [A^2,6,9, K^3]temporin-SHa]”: the MBC in test [2] is above 200 µM.
